One molecule from BindingDB's records for doi:10.1074/jbc.274.19.13370 (SynthÉLabo, 1999) can be followed below.

This experiment concerns the target Gamma-aminobutyric acid receptor subunit alpha-5 (Rattus norvegicus, UniProt P19969).

“And” between values parts separate entries of the source, which are not always exact repeats. Equal entries are not always repeated.

Chain of Gamma-aminobutyric acid receptor subunit alpha-5 (P19969 whole entry): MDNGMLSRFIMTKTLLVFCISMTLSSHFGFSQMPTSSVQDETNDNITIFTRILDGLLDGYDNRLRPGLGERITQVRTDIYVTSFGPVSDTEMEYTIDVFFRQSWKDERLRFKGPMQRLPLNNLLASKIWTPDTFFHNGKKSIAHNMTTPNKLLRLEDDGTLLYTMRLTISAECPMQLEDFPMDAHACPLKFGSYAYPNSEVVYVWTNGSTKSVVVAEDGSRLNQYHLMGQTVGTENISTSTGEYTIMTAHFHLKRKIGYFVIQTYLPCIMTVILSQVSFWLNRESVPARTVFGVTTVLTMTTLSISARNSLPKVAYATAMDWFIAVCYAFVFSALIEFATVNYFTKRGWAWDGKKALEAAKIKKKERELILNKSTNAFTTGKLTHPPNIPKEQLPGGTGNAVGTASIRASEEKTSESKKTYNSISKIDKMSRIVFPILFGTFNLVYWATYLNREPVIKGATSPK

For `Cc1nnc2ccc(-c3cccc(C(F)(F)F)c3)nn12`, the Ki was 0.333 µM and 0.127 µM and 0.157 µM and 0.447 µM.

One may read the Ki as a measure of affinity in units of concentration, obtained from inhibition or displacement. Read a low Ki as a stronger hold on the target.
